Legend:
Format in all cases: in vivo
corn (Zea mays) [1] = assay: Test G Pre-Emergence Protocol; conditions: Zea mays, pre-emergence, 312 h, evaluated after 13 days
Procedure, shortened: (§1)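 Pre-emergence spray, 15.625/62.5/250 g/ha, vehicle acetone:water 50:50 + 0.5% Tween 20, applied 1 d after sowing. Glasshouse 24/16° C, 14 h light, 65% RH, watered twice daily. Visual damage rating at 13 d, 0–100 scale.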

[2] = test system: barnyardgrass (Echinochloa crus-galli); assay: Test G Pre-Emergence Protocol; conditions: Echinochloa crus-galli, pre-emergence, 312 h, evaluated after 13 days
Procedure, shortened: as §1

[3] = test system: giant foxtail (Setaria faberi); assay: Test G Pre-Emergence Protocol; conditions: Setaria faberi, pre-emergence, 312 h, evaluated after 13 days
Procedure, shortened: as §1

[4] = test system: ivy-leaved morning glory (Ipomoea hederacea); assay: Test G Pre-Emergence Protocol; conditions: Ipomoea, pre-emergence, 312 h, evaluated after 13 days
Procedure, shortened: as §1

[5] = test system: velvetleaf (Abutilon theophrasti); assay: Test G Pre-Emergence Protocol; conditions: Abutilon theophrasti, pre-emergence, 312 h, evaluated after 13 days
Procedure, shortened: as §1

[6] = test system: redroot pigweed (Amaranthus retroflexus); assay: Test G Pre-Emergence Protocol; conditions: Amaranthus retroflexus, pre-emergence, 312 h, evaluated after 13 days
Procedure, shortened: as §1

corn (Zea mays) [7] = assay: Test G Post-Emergence Protocol; conditions: Zea mays, post-emergence, 312 h
Procedure, shortened: (§2)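 Pot-grown seedlings, 8 days old, raised in a glasshouse at 24/16 °C day/night with 14 h light and 65% humidity, were sprayed post-emergence with test compound in acetone/water (50:50) plus 0.5% Tween 20 at 15.625, 62.5 or 250 g/ha. Damage was scored visually 13 days later on a 0–100 scale (100 = total damage).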

[8] = test system: barnyardgrass (Echinochloa crus-galli); assay: Test G Post-Emergence Protocol; conditions: Echinochloa crus-galli, post-emergence, 312 h
Procedure, shortened: as §2

[9] = test system: giant foxtail (Setaria faberi); assay: Test G Post-Emergence Protocol; conditions: Setaria faberi, post-emergence, 312 h
Procedure, shortened: as §2

[10] = test system: ivy-leaved morning glory (Ipomoea hederacea); assay: Test G Post-Emergence Protocol; conditions: Ipomoea, post-emergence, 312 h
Procedure, shortened: as §2

[11] = test system: velvetleaf (Abutilon theophrasti); assay: Test G Post-Emergence Protocol; conditions: Abutilon theophrasti, post-emergence, 312 h
Procedure, shortened: as §2

[12] = test system: redroot pigweed (Amaranthus retroflexus); assay: Test G Post-Emergence Protocol; conditions: Amaranthus retroflexus, post-emergence, 312 h
Procedure, shortened: as §2

Compound Cc1cc(NC(=O)[C@@H]2C(=O)N(C)C[C@H]2c2ccc(C(F)(F)F)cc2)no1 (racemic) [Compound 1556] has a plant injury at 15.625 g/ha (corn (Zea mays) [1]; 15.625 g ai/ha, read-out: Corn damage rating (100=total damage to plant; 0=no damage to plant)) of 0%, a plant injury at 62.5 g/ha (corn (Zea mays) [1]; 62.5 g ai/ha, 100=total damage to plant, 0=no damage to plant, read-out: plant damage rating, Corn) of 0% and a plant injury at 250 g/ha (corn (Zea mays) [1]; 250 g ai/ha, read-out: Corn damage rating (100=total damage to plant; 0=no damage to plant)) of 0%. It also gave a pest or weed control at 15.625 g/ha ([2]; 15.625 g ai/ha, read-out: Barnyard grass damage rating (100=total damage to plant; 0=no damage to plant)) of 0%, a pest or weed control at 62.5 g/ha ([2]; 62.5 g ai/ha, 100=total damage to plant, 0=no damage to plant, read-out: plant damage rating, Barnyardgrass) of 0% and a pest or weed control at 250 g/ha ([2]; 250 g ai/ha, read-out: Barnyardgrass damage rating (100=total damage to plant; 0=no damage to plant)) of 0%. It also gave a pest or weed control at 15.625 g/ha ([3]; 15.625 g ai/ha, read-out: Foxtail, Giant damage rating (100=total damage to plant; 0=no damage to plant)) of 0%, a pest or weed control at 62.5 g/ha ([3]; 62.5 g ai/ha, 100=total damage to plant, 0=no damage to plant, read-out: plant damage rating, Foxtail, Giant) of 0% and a pest or weed control at 250 g/ha ([3]; 250 g ai/ha, read-out: Foxtail, Giant damage rating (100=total damage to plant; 0=no damage to plant)) of 0%. For the same compound, the pest or weed control at 15.625 g/ha ([4]; 15.625 g ai/ha, read-out: Morning-glory, Ivy-leaved damage rating (100=total damage to plant; 0=no damage to plant)) was 0%, the pest or weed control at 62.5 g/ha ([4]; 62.5 g ai/ha, 100=total damage to plant, 0=no damage to plant, read-out: plant damage rating, Morningglory, Ivy-leaved) was 0% and the pest or weed control at 250 g/ha ([4]; 250 g ai/ha, read-out: Morningglory, Ivy-leaved damage rating (100=total damage to plant; 0=no damage to plant)) was 0%. It also gave a pest or weed control at 15.625 g/ha ([5]; 15.625 g ai/ha, read-out: Velvetleaf damage rating (100=total damage to plant; 0=no damage to plant)) of 0%, a pest or weed control at 62.5 g/ha ([5]; 62.5 g ai/ha, 100=total damage to plant, 0=no damage to plant, read-out: plant damage rating, Velvetleaf) of 0% and a pest or weed control at 250 g/ha ([5]; 250 g ai/ha, read-out: Velvetleaf damage rating (100=total damage to plant; 0=no damage to plant)) of 0%. For the same compound, the pest or weed control at 15.625 g/ha ([6]; 15.625 g ai/ha, read-out: Pigweed, Redroot damage rating (100=total damage to plant; 0=no damage to plant)) was 0%, the pest or weed control at 62.5 g/ha ([6]; 62.5 g ai/ha, 100=total damage to plant, 0=no damage to plant, read-out: plant damage rating, Pigweed, Redroot) was 0% and the pest or weed control at 250 g/ha ([6]; 250 g ai/ha, read-out: Pigweed, Redroot damage rating (100=total damage to plant; 0=no damage to plant)) was 20%. For the same compound, the plant injury at 15.625 g/ha (corn (Zea mays) [7]; 15.625 g ai/ha, evaluated after 13 days (100=total damage to plant; 0=no damage to plant), read-out: Corn damage rating) was 0%, the plant injury at 62.5 g/ha (corn (Zea mays) [7]; 62.5 g ai/ha, evaluated after 13 days, read-out: Corn damage rating (100=total damage to plant; 0=no damage to plant)) was 0% and the plant injury at 250 g/ha (corn (Zea mays) [7]; 250 g ai/ha, evaluated after 13 days, read-out: damage to plant, Corn (100=total damage to plant; 0=no damage to plant)) was 0%. It also gave a pest or weed control at 15.625 g/ha ([8]; 15.625 g ai/ha, evaluated after 13 days (100=total damage to plant; 0=no damage to plant), read-out: Barnyardgrass damage rating) of 0%, a pest or weed control at 62.5 g/ha ([8]; 62.5 g ai/ha, evaluated after 13 days, read-out: Barnyardgrass damage rating (100=total damage to plant; 0=no damage to plant)) of 0% and a pest or weed control at 250 g/ha ([8]; 250 g ai/ha, evaluated after 13 days, read-out: damage to plant, Barnyardgrass (100=total damage to plant; 0=no damage to plant)) of 20%. For the same compound, the pest or weed control at 15.625 g/ha ([9]; 15.625 g ai/ha, evaluated after 13 days (100=total damage to plant; 0=no damage to plant), read-out: Foxtail, Giant damage rating) was 0%, the pest or weed control at 62.5 g/ha ([9]; 62.5 g ai/ha, evaluated after 13 days, read-out: Foxtail, Giant damage rating (100=total damage to plant; 0=no damage to plant)) was 0% and the pest or weed control at 250 g/ha ([9]; 250 g ai/ha, evaluated after 13 days, read-out: damage to plant, Foxtail, Giant (100=total damage to plant; 0=no damage to plant)) was 0%. It also gave a pest or weed control at 15.625 g/ha ([10]; 15.625 g ai/ha, evaluated after 13 days (100=total damage to plant; 0=no damage to plant), read-out: Morningglory, Ivy-leaved damage rating) of 0%, a pest or weed control at 62.5 g/ha ([10]; 62.5 g ai/ha, evaluated after 13 days, read-out: Morningglory, Ivy-leaved damage rating (100=total damage to plant; 0=no damage to plant)) of 0% and a pest or weed control at 250 g/ha ([10]; 250 g ai/ha, evaluated after 13 days, read-out: damage to plant, Morningglory, Ivy-leaved (100=total damage to plant; 0=no damage to plant)) of 0%. For the same compound, the pest or weed control at 15.625 g/ha ([11]; 15.625 g ai/ha, evaluated after 13 days (100=total damage to plant; 0=no damage to plant), read-out: Velvetleaf damage rating) was 0%, the pest or weed control at 62.5 g/ha ([11]; 62.5 g ai/ha, evaluated after 13 days, read-out: Velvetleaf damage rating (100=total damage to plant; 0=no damage to plant)) was 0% and the pest or weed control at 250 g/ha ([11]; 250 g ai/ha, evaluated after 13 days, read-out: damage to plant, Velvetleaf (100=total damage to plant; 0=no damage to plant)) was 0%. The pest or weed control at 15.625 g/ha ([12]; 15.625 g ai/ha, evaluated after 13 days (100=total damage to plant; 0=no damage to plant), read-out: Pigweed, Redroot damage rating) was 0%, the pest or weed control at 62.5 g/ha ([12]; 62.5 g ai/ha, evaluated after 13 days, read-out: Pigweed, Redroot damage rating (100=total damage to plant; 0=no damage to plant)) was 0% and the pest or weed control at 250 g/ha ([12]; 250 g ai/ha, evaluated after 13 days, read-out: damage to plant, Pigweed, Redroot (100=total damage to plant; 0=no damage to plant)) was 0%.

Source: patent publication US12077503B2, “Substituted cyclic amides and their use as herbicides” (FMC CORPORATION, priority 2015, dated 2024)
